# In patent US12606528B2, “Methods and materials for inhibiting NF-kB activity” (University of Pittsburgh - Of the Commonwealth System of …, priority 2019, dated 2026):
# Where two headings read alike, the source gives them in different places.
# Assays:
# NF-κB = NF-κB assay: THP1-NF-κB-LUC cells, LPS-stimulated secreted luciferase; format: cell-based; conditions: THP1-NF-κB-LUC cells, read-out: IC50 (NF-κB assay)
# Outline: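 THP1-NF-κB-LUC cells (25k/well) were pretreated with compounds for 2 h, then stimulated with LPS (10 ng/mL) for 18 h. Secreted luciferase was measured and normalized to vehicle, and IC50 was fitted from the concentration series.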
# TNF release = test: TNF assay: TNF release from LPS-stimulated human PBMCs (TNF ELISA); format: cell-based; conditions: PBMC, read-out: IC50 (TNF assay)
# Outline: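 TNF ELISA on supernatants read-out; cells were 10k human PBMCs/well given LPS at 10 ng/mL for 18 h after a 2 h compound pre-incubation across a concentration series, with IC50 derived for suppression of TNF secretion.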
# [1] = compounds 2 hours before LPS (10 ng/mL) for 18 hours, secreted luciferase
# [2] = human PBMCs, compounds 2 hours before LPS (10 ng/ml) for 18 hours, supernatant TNF ELISA
# [3] = LPS-stimulated human PBMCs, TNF ELISA
SMILES,IC50 (NF-κB; [1]) [µM],IC50 (TNF release; [2]) [µM],IC50 (NF-κB; LPS-stimulated) [µM],IC50 (TNF release; [3]) [µM]
O=C1COc2c(cc(Br)cc2S(=O)(=O)NCCc2ccc(OC(F)(F)F)cc2)N1 [BC19383],> 10,> 10,–,–
CS(=O)(=O)c1[nH]c(-c2ccccc2)nc1S(=O)(=O)c1ccc(F)cc1 [BC19522],–,–,1 to 10,> 10
C=CC(=O)Nc1ccc2nc(-c3ccc(F)cc3)c(-c3ccc(F)cc3)nc2c1 [BC19313],–,–,0.1 to 1,1 to 10
CC(C)c1ccc(NS(=O)(=O)c2cc(Br)cc3c2OCCC(=O)N3)cc1 [BC19687],–,–,< 0.1,> 10
CCc1cccc(NS(=O)(=O)c2cc(Br)cc3c2OCCNC3=O)c1 [BC19609],–,–,1 to 10,> 10
CC(C)CC1Oc2cc(S(=O)(=O)Nc3ccc(F)cc3F)c(Br)cc2NC1=O (centres unmarked) [BC19770],0.1 to 1,> 10,–,–
CCCS(=O)(=O)c1sc(-c2cccc(F)c2)nc1S(=O)(=O)c1ccc(Cl)cc1 [BC19475],–,–,1 to 10,1 to 10
Cc1ccc(NS(=O)(=O)c2cc3c(cc2Br)N(C)C(=O)C(C)O3)cc1 (centres unmarked) [BC19912],> 10,> 10,–,–
CCC1Oc2cc(S(=O)(=O)Nc3cccc(C(C)=O)c3)c(Cl)cc2NC1=O (centres unmarked) [BC19282],0.1 to 1,> 10,–,–
CC(C)C[S+]([O-])c1[nH]c(-c2ccccc2)nc1S(=O)(=O)c1ccc(F)cc1 (centres unmarked) [BC19582],–,–,1 to 10,> 10
Cc1ccc(-c2nc(S(=O)(=O)c3ccc(Cl)cc3)c(S(C)(=O)=O)o2)cc1 [BC19126],–,–,1 to 10,0.1 to 1
Cc1ccc(NS(=O)(=O)c2cc(Br)cc3c2OCCC(=O)N3)cc1Cl [BC19651],–,–,0.1 to 1,> 10
CCC1Oc2c(cc(Br)cc2S(=O)(=O)Nc2ccc(OC)cc2)N(C)C1=O (centres unmarked) [BC19935],< 0.1,1 to 10,–,–
N#Cc1ccc(NS(=O)(=O)c2cc3c(cc2Br)NC(=O)CCO3)cc1 [BC19695],–,–,> 10,1 to 10
CN1CCN(C(=O)c2ccc3nc(-c4ccc(F)cc4)c(-c4cccs4)nc3c2)CC1 [BC19185],–,–,< 0.1,> 10
Cc1ccc(NS(=O)(=O)c2cc(Cl)cc3c2OC(C)C(=O)N3)cc1 (centres unmarked) [BC19718],< 0.1,1 to 10,–,–
O=S(=O)(c1ccc(Br)cc1)c1cnccc1O [BC 19460],> 10,> 10,–,–
CC(C)C[S+]([O-])c1sc(-c2ccc3ccccc3c2)nc1S(=O)(=O)c1ccc(Cl)cc1 (centres unmarked) [BC19675],–,–,1 to 10,1 to 10
O=C1COc2cc(S(=O)(=O)Nc3ccccc3)c(Cl)cc2N1 [BC19161],1 to 10,> 10,–,–
CCC1Oc2c(cc(Br)cc2S(=O)(=O)Nc2ccc(OC(F)(F)F)cc2)N(C)C1=O (centres unmarked) [BC19921],< 0.1,1 to 10,–,–

SMILES,IC50 (NF-κB; [1]) [µM],IC50 (TNF release; [2]) [µM],IC50 (NF-κB; LPS-stimulated) [µM],IC50 (TNF release; [3]) [µM]
C[S+]([O-])c1sc(-c2ccc(Cl)cc2)nc1S(=O)(=O)c1ccc(Cl)cc1 (centres unmarked) [BC19528],–,–,1 to 10,0.1 to 1
CCC1Oc2c(cc(Cl)cc2S(=O)(=O)Nc2cccc(Cl)c2)NC1=O (centres unmarked) [BC19752],< 0.1,> 10,–,–
OCCCn1cnnc1-c1ccc2nc(-c3ccc(F)cc3)c(-c3ccc(F)cc3)nc2c1 [BC19665],–,–,< 0.1,1 to 10
Cc1ccc(NS(=O)(=O)c2cc3c(cc2Br)N(C)C(=O)C(C)O3)cc1Cl (centres unmarked) [BC19797],1 to 10,1 to 10,–,–
C#CCNC(=O)c1ccc2nc(-c3cccs3)c(-c3ccc(F)cc3)nc2c1 [BC19120],–,–,< 0.1,< 0.1
O=C1NCCOc2c1cc(Br)cc2S(=O)(=O)Nc1ccc(F)cc1 [BC19549],–,–,1 to 10,> 10
COCCS(=O)(=O)c1sc(-c2cccc(F)c2)nc1S(=O)(=O)c1ccc(Cl)cc1 [BC19527],–,–,1 to 10,1 to 10
CCCS(=O)(=O)c1sc(-c2ccccc2)nc1S(=O)(=O)c1ccc(Cl)cc1 [BC19624],–,–,1 to 10,1 to 10
CCNS(=O)(=O)c1cc2c(cc1Cl)NC(=O)C(C)O2 (centres unmarked) [BC19209],1 to 10,> 10,–,–
O=C1COc2c(cc(Br)cc2S(=O)(=O)Nc2ccc(C(F)(F)F)cc2Cl)N1 [BC19384],< 0.1,> 10,–,–
CNC(=O)N1CCC(C(=O)Nc2ccc3nc(-c4ccc(F)cc4)c(-c4ccc(F)cc4)nc3c2)CC1 [BC19311],–,–,< 0.1,> 10
CCC1Oc2c(cc(Br)cc2S(=O)(=O)NC2CCCCC2)NC1=O (centres unmarked) [BC19233],1 to 10,1 to 10,–,–
CCc1cccc(NS(=O)(=O)c2cc3c(cc2Br)NC(=O)CCO3)c1 [BC19657],–,–,1 to 10,> 10
CCC1Oc2cc(S(=O)(=O)Nc3ccc(Cl)cc3)c(Br)cc2N(C)C1=O (centres unmarked) [BC19930],0.1 to 1,> 10,–,–
Fc1ccc(-c2nc3ccc(-c4nnn[nH]4)cc3nc2C(F)(F)F)cc1 [BC19153],–,–,> 10,> 10
O=S(=O)(c1ccc(Cl)cc1)c1nc(-c2cccc(F)c2)oc1[S+]([O-])C1CCCCC1 (centres unmarked) [BC19353],–,–,0.1 to 1,0.1 to 1
CCC1Oc2c(cc(Cl)cc2S(=O)(=O)Nc2ccc(Cl)cc2)NC1=O (centres unmarked) [BC19740],< 0.1,> 10,–,–
CCC1Oc2c(cc(Br)cc2S(=O)(=O)NC2CCC(O)CC2)NC1=O (centres unmarked) [BC19378],> 10,> 10,–,–
CN1CCN(C(=O)c2ccc3nc(-c4cccs4)c(-c4ccc(F)cc4)nc3c2)CC1 [BC19109],–,–,0.1 to 1,> 10
Cc1c(Cl)cc2c(c1S(=O)(=O)Nc1ccc(Cl)cc1)OCC(=O)N2 [BC19434],< 0.1,> 10,–,–

SMILES,IC50 (NF-κB; [1]) [µM],IC50 (TNF release; [2]) [µM],IC50 (NF-κB; LPS-stimulated) [µM],IC50 (TNF release; [3]) [µM]
CC1Oc2cc(S(=O)(=O)Nc3cccc(F)c3)c(Br)cc2N(C)C1=O (centres unmarked) [BC19903],0.1 to 1,> 10,–,–
O=C1COc2c(cc(Br)cc2S(=O)(=O)Nc2ccc(F)cc2F)N1 [BC19178],< 0.1,1 to 10,–,–
CN1CCN(C(=O)c2ccc3nc(-c4ccc(OC(F)(F)F)cc4)c(-c4ccc(OC(F)(F)F)cc4)nc3c2)CC1 [BC19445],–,–,> 10,> 10
CC(C)[S+]([O-])c1sc(C2CCCCC2)nc1S(=O)(=O)c1ccc(Cl)cc1 (centres unmarked) [BC19635],–,–,> 10,> 10
Fc1ccc(-c2nc3ccc(-c4nnc[nH]4)cc3nc2-c2ccc(F)cc2)cc1 [BC19143],–,–,0.1 to 1,> 10
O=c1c(S(=O)(=O)c2ccc(F)cc2)c(O)[nH]c2ncccc12 [BC19323],> 10,> 10,–,–
CC1Oc2c(cc(Br)cc2S(=O)(=O)Nc2ccc(Cl)cc2)N(C)C1=O (centres unmarked) [BC19791],< 0.1,> 10,–,–
CCc1ccc(NS(=O)(=O)c2cc(Cl)cc3c2OC(CC)C(=O)N3)cc1 (centres unmarked) [BC19742],< 0.1,1 to 10,–,–
Fc1ccc(-c2nc3cccnc3nc2-c2ccc(F)cc2)cc1 [BC19403],–,–,0.1 to 1,> 10
Cn1nnnc1-c1ccc2nc(-c3ccc(F)cc3)c(-c3ccc(F)cc3)nc2c1 [BC19139],–,–,< 0.1,> 10
CCc1ccc(NS(=O)(=O)c2cc3c(cc2Br)NC(=O)C(C)O3)cc1 (centres unmarked) [BC19216],< 0.1,> 10,–,–
O=c1c(S(=O)(=O)c2ccc(F)c(F)c2)c[nH]c2cccnc12 [BC19121],> 10,> 10,–,–
O=C1NCCOc2c1cc(Br)cc2S(=O)(=O)Nc1ccc(F)cc1Cl [BC19613],–,–,> 10,> 10
CC1Oc2c(cc(Cl)cc2S(=O)(=O)Nc2cccc(F)c2)NC1=O (centres unmarked) [BC19714],< 0.1,1 to 10,–,–
CC1Oc2c(cc(Br)cc2S(=O)(=O)NCc2ccc(F)cc2F)NC1=O (centres unmarked) [BC19362],0.1 to 1,> 10,–,–
CC1Oc2cc(S(=O)(=O)Nc3ccc(F)cc3Cl)c(Br)cc2NC1=O (centres unmarked) [BC19285],1 to 10,> 10,–,–
Cc1ccc(S(=O)(=O)c2nc(-c3ccccc3)oc2S(=O)(=O)CC2CC2)cc1 [BC19265],–,–,< 0.1,0.1 to 1
CCCS(=O)(=O)c1oc(-c2ccc(Cl)cc2)nc1S(=O)(=O)c1ccc(Cl)cc1 [BC19418],–,–,1 to 10,1 to 10
